These results are taken from publication PMC3774141 (Bioorganic & medicinal chemistry letters, 2013).

Experiment [1] concerns human cervix carcinoma (HeLa). The settings on record: read-out: IC50 HeLa; values taken from the literature for comparison; cited from earlier work.
The subject of experiment [2] is human non-small-cell lung carcinoma (A549). Conditions: read-out: IC50 A549; values taken from the literature for comparison; cited from earlier work.
Experiment [3] concerns breast adenocarcinoma (MCF-7). Conditions: read-out: IC50 MCF-7; values taken from the literature for comparison; cited from earlier work.
A further experiment has as its system tubulin. In words: inhibition of tubulin polymerization. It is filed as biochemical.
The test system of experiment [4] is human cancer cell lines (HeLa, A549, H1299, MCF-7). In words: antiproliferative activity, cancer cell lines tested. The format is cell-based. Conditions: read-out: IC50 against the cancer cell lines tested.

For orientation: IC50 means the concentration at which inhibition is half-maximal. For the compound `COc1ccc(-c2nnnn2-c2cc(OC)c(OC)c(OC)c2)cc1` [Compound 5f], the IC50 is 2.6 nM in experiment [1], 222 ± 59 nM in experiment [2] and 38.5 ± 5.8 nM in experiment [3].

In the case of `COc1ccc(-c2nnnn2-c2cc(OC)c(OC)c(OC)c2O)c(O)c1` [Compound 5a], in the experiment with tubulin, the “inhibitors of tubulin polymerization (result in words)” value is “inactive”. In experiment [4], the half-maximal inhibitory concentration (IC50) was above 45000 nM.

As to `COc1ccc(-c2nnnn2-c2cc(OC)c(OC)c(OC)c2O)cc1` [Compound 5b], the “inhibitors of tubulin polymerization (result in words)” value with tubulin was “inactive”. Moreover, in experiment [4], the IC50 is above 45000 nM.
